# Data as given in patent US20200063210A1, “Gene Expression Signatures Associated with Patient Response to Acute Myeloid Leukemia Treatment and Use Thereof for Predicting Response to Therapy” (WAKE FOREST UNIVERSITY HEALTH SCIENCES, priority 2016, published 2020).
# Key:
# [1] = test system: Baf3-p210 cells; assay: Survival of Balb/c mice injected with Baf3-p210 cells; format: in vivo; conditions: CPI at 250 mg/kg plus Doxorubicin at 3 mg/kg, day 3
# Procedure: FIG. 4. […] Balb/c mice were injected with Baf3-p210 cells and on day 3 treated with saline (control), Doxorubicin at 3 mg/kg or CPI at 250 mg/kg plus doxorubicin. Dox=Doxorubicin, CPI=CPI-613. P value shown is for Dox vs CPI-Dox.
# [2] = test system: AMPK; assay: AMPK phosphorylation blot of patient mononuclear cells after CPI-613 infusion; format: in vivo, human; conditions: two patients, day one after infusion
# Procedure: (§1) FIGS. 9A-9C. AMPK Contributes to Resistance to CPI-613. (FIG. 9A) CPI-613 induces AMPK phosphorylation. Blood samples were taken on day one of treatment at the indicated time points following infusion of CPI-613. Red blood cells were lysed, and mononuclear cells were isolated. Extracts were prepared and blotted for phosphorylated AMPK. Both patients had circulating blasts at the time of sampling. Actin was used as a loading control. (FIG. 9B) Competition assay. Cas9 expressing MFL2 cells were partially infected with an sgRNA vector targeting AMPK tagged with GFP. Cells were incubated with the indicated drug for 72 hours and the % GFP+determined in the viable population. (FIG. 9C) Viability assay. Clones of Cas9 expressing MFL2 cells with sgRNAs targeting AMPK or ROSA26 were incubated with the indicated drug for 72 hours and viability determined.
# (§2) Several patients had blood samples taken before and after CPI-613 infusion. […] The role of AMPK in response was assessed by competition assays using Cas-9 expressing AML cells that have deleted AMPK (FIG. 9B).
# [3] = test system: Murine AML cells (M1p5); assay: Viability of M1p5 AML cells expressing p53 shRNA or vector control; format: cell-based; conditions: 72 hours; for response of p53 shRNA cells compared to vector controls (viability): single agent
# Procedure: FIGS. 10A-10C. CPI-613 induces chemotherapy sensitivity in p53 suppressed AML cells. (FIG. 10A) Murine AML cells (M1p5) expressing an shRNA against p53 (p53 shRNA) or vector control (GFP Control) were exposed to the indicated amount of CPI-613 (in μmoles). After 72 hours viability was determined and compared to untreated cells. (FIG. 10B) Murine AML cells (M1p5) expressing an shRNA against p53 (p53 shRNA) or vector control (GFP Control) were exposed to the indicated amount of doxorubicin (in nmoles). After 72 hours viability was determined and compared to untreated cells. (FIG. 10C) Murine AML cells (M1p5) expressing an shRNA against p53 (p53 shRNA) or vector control (GFP Control) were exposed to 50 μM CPI-613 and 2.5, 5, or 10 nM Doxorubicin for 72 hours. Following exposure viability was assessed and compared to untreated cells.
# Loss of p53 is associated with poor risk cytogenetics, poor prognosis and resistance to chemotherapy but not resistance to CPI-613. In AML patients poor risk karyotypes are associated with p53 loss or mutation in 70-80% of cases (13, 29). Indeed it has been argued that much of the prognostic importance of poor risk karyotypes is mediated by p53 loss (13). This is not surprising given the association between p53 status and response to chemotherapy in AML (30). In order to assess the consequences of p53 suppression on mitochondrial inhibition we generated murine AML cells that knocked down p53 by shRNA.
# [4] = test system: relapsed or refractory AML; assay: Phase I study of CPI-613 in combination with high dose cytarabine and mitoxantrone; format: in vivo, human
# Source text: FIGS. 8A-8B. Survival compared to historical cohort. CPI-HAM survival in the evaluable population compared to a historical cohort. (FIG. 8A) Kaplan-Meier curve of overall survival of elderly AML patients treated with high dose cytarabine, mitoxantrone, and CPI-613 (CPI-HAM) or a historical cohort of poor risk relapsed or refractory patients treated with high dose cytarabine, mitoxantrone, and asparaginase (HAMA). (FIG. 8B) Kaplan-Meier curve of overall survival of poor risk, relapsed or refractory AML patients treated with high dose cytarabine, mitoxantrone, and CPI-613 (CPI-HAM) or a historical cohort of poor risk relapsed or refractory patients treated with high dose cytarabine, mitoxantrone, and asparaginase (HAMA). Kaplan-Meier estimates were compared by log-rank test.
# In a recently completed phase I study, CPI-613 was given in combination with high dose cytarabine and mitoxantrone to patients with relapsed or refractory AML (FIGS. 6-7). In this trial, 67 patients were enrolled and 62 were evaluable. […] The median age was 60 years (range 21-79). In patients with relapsed disease the median duration of CR1 was 11.2 months. Cytogenetics were poor risk in 27 patients, intermediate in 33, and good in 6. In the 62 evaluable patients the results were as follows. The overall response rate was 50% (26CR+5CRi) with a median survival of 6.7 months. […] When compared to historical controls treated with the same chemotherapy without CPI-613 an increase in response rate was seen. […] Additionally, the median survival of the historical patients was only 2.8 months while the median survival in the CPI-613 treated patients was 5.5 months (FIG. 8B). […] In patients >60 years old the CR/CRi rate was 47% (15/32) with a median survival of 6.9 months (FIG. 8A).
# [5] = test system: AMPK deleted MFL2 AML cells; assay: Competition assay, Cas9 expressing MFL2 cells with sgRNA targeting AMPK; format: cell-based; conditions: 72 hours with drug, % GFP+ in the viable population
# Procedure: as §1, §2
# [6] = test system: PDH; assay: PDH phosphorylation in patient blood samples before and after CPI-613 infusion; format: in vivo, human; conditions: three patients
# Procedure: as §2
# [7] = test system: advanced myeloid malignancies; conditions: single agent; heavily pre-treated cohort; cited from earlier work
# [8] = test system: AML cell lines; assay: AML cell growth under mitochondrial inhibition; format: cell-based, human and murine; conditions: for AML cell growth: multiple human and murine cell lines, single agent
# [9] = test system: K562 cells; assay: Oxygen consumption rate after Ara-C, K562; format: cell-based; conditions: Ara-C for 16 hours
# Procedure: (§3) FIGS. 2A-2B. […] K562 cells (FIG. 2A) and OCI-AML3 (FIG. 2B) and were treated with Ara-C for 16 hours and oxygen consumption rate (OCR) was assessed. Shown is the average OCR from 3 independent experiments each done in triplicate. P value for OCI-AML3 is 0.0387 and for K562 is <0.0001.
# [10] = test system: OCI-AML3; assay: Oxygen consumption rate after Ara-C, OCI-AML3; format: cell-based; conditions: Ara-C for 16 hours
# Procedure: as §3
# [11] = 62 evaluable patients, CPI-613 with high dose cytarabine and mitoxantrone
smiles,measurement,setting,value
O=C(O)CCCCC(CCSCc1ccccc1)SCc1ccccc1 (stereo not shown) [CPI-613],combination effect with doxorubicin in vivo,[1],acts synergistically with doxorubicin in vivo
same,phosphorylation of AMPK,[2],robust phosphorylation of AMPK
same,sensitivity of p53 shRNA cells to doxorubicin in presence of CPI-613,"[3]; 50 μM CPI-613 and 2.5, 5, or 10 nM Doxorubicin",increased sensitivity to doxorubicin to that of the controls
same,response of p53 shRNA cells compared to vector controls (viability),[3],no change in response
same,median survival,[4]; [11],6.7 months
same,overall response rate (CR+CRi),[4]; [11],50%
same,"CR/CRi rate, patients >60 years old",[4]; patients >60 years old (15/32),47%
same,"median survival, patients >60 years old",[4]; patients >60 years old (FIG. 8A),6.9 months
same,median survival for all others,"[4]; patients without response, CPI-613 with high dose cytarabine and mitoxantrone",3 months
same,"median survival, poor risk",[4]; poor risk CPI-613 treated patients (FIG. 8B),5.5 months
same,"response rate, poor risk cytogenetics","[4]; poor risk cytogenetics (9CR+2CRi/24), CPI-613 with high dose cytarabine and mitoxantrone",46%
same,"response rate versus historical controls, poor risk disease","[4]; poor risk disease, compared with the same chemotherapy without CPI-613",more than doubled
same,median survival in responders,"[4]; responders, CPI-613 with high dose cytarabine and mitoxantrone",13.2 months
same,competition of normal versus AMPK deleted cells,[5],Normal cells out-competed AMPK deleted cells
same,phosphorylation of PDH,[6],increased phosphorylation of PDH
same,overall response rate,[7],29%
same,AML cell growth,[8],impairs AML cell growth
same,combination effect of metformin and CPI-613,[8]; the two together,synergistic in vitro and in vivo
Nc1ccn([C@@H]2O[C@H](CO)[C@@H](O)[C@@H]2O)c(=O)n1 [cytarabine],oxygen consumption rate (OCR),[9],induces mitochondrial metabolism
same,oxygen consumption rate (OCR),[10],induces mitochondrial metabolism
COc1cccc2c1C(=O)c1c(O)c3c(c(O)c1C2=O)C[C@@](O)(C(=O)CO)C[C@@H]3O[C@H]1C[C@H](N)[C@H](O)[C@H](C)O1 [doxorubicin],response of p53 shRNA cells compared to vector controls (viability),[3],significantly resistant
CN(C)C(=N)N=C(N)N [metformin],AML cell growth,[8],impairs AML cell growth
